# What was measured:
# [1] = Protective index, ratio of MNTD50 for HEK293T cells to MIC for Mycobacterium tuberculosis H37Rv
# HEK-293T = assay: Cytotoxicity against HEK293T cells after 48 hrs by MTT assay; assay type: cell-based; conditions: human
# [2] = test system: Mycobacterium tuberculosis; assay: Antitubercular activity against Mycobacterium tuberculosis H37Rv measured after 1 week by microplate alamar blue assay; assay type: functional; conditions: 168 h
SMILES,Ratio [1],MNTD50 (HEK-293T) [µg/mL],MIC [2] [mg/L]
FC(F)(F)c1ccc(Cn2cc(C3=C(Cl)c4ccc(-c5cccs5)nc4CC3)nn2)cc1,13.76,86,6.25
O=[N+]([O-])c1ccc(Cn2cc(C3=C(Cl)c4ccc(-c5cccs5)nc4CC3)nn2)cc1,5.52,69,12.5
COc1cc(Cn2cc(C3=C(Cl)c4ccc(-c5cccs5)nc4CC3)nn2)cc(OC)c1OC,5.92,74,12.5
ClC1=C(c2cn(Cc3ccc(Br)cc3)nn2)CCc2nc(-c3cccs3)ccc21,28.02,88,3.12
CCc1ccc(Cn2cc(C3=C(Cl)c4ccc(-c5cccs5)nc4CC3)nn2)cc1,,,25
COc1cccc(Cn2cc(C3=C(Cl)c4ccc(-c5cccs5)nc4CC3)nn2)c1,31.4,98,3.12
ClC1=C(c2cn(Cc3ccc(Cl)c(Cl)c3)nn2)CCc2nc(-c3cccs3)ccc21,,,25
N#CC1=C(Cl)c2ccc(-c3cccs3)nc2CC1,,,25
Cc1ccc(Cn2cc(C3=C(Cl)c4ccc(-c5cccs5)nc4CC3)nn2)cc1,,,25
COc1ccc(Cn2cc(C3=C(Cl)c4ccc(-c5cccs5)nc4CC3)nn2)cc1,,,25
Fc1ccc(Cn2cc(C3=C(Cl)c4ccc(-c5cccs5)nc4CC3)nn2)cc1,,,25
Cc1cc(C)c(Cn2cc(C3=C(Cl)c4ccc(-c5cccs5)nc4CC3)nn2)c(C)c1,,,25
ClC1=C(c2cn(Cc3cccc(Br)c3)nn2)CCc2nc(-c3cccs3)ccc21,,,25
ClC1=C(c2cn(Cc3ccccc3)nn2)CCc2nc(-c3cccs3)ccc21,71.7,112,1.56
Fc1ccc(Cn2cc(C3=C(Cl)c4ccc(-c5cccs5)nc4CC3)nn2)c(Cl)c1,,,25
Fc1cc(Br)ccc1Cn1cc(C2=C(Cl)c3ccc(-c4cccs4)nc3CC2)nn1,,,25
O=C(O)c1cn(C2CC2)c2cc(N3CCNCC3)c(F)cc2c1=O [CIPROFLOXACIN],,,1.56
CC[C@@H](CO)NCCN[C@@H](CC)CO [ETHAMBUTOL],,,3.13
NNC(=O)c1ccncc1 [ISONIAZID],,32,0.1
CO[C@H]1/C=C/O[C@@]2(C)Oc3c(C)c(O)c4c(O)c(c(/C=N/N5CCN(C)CC5)c(O)c4c3C2=O)NC(=O)/C(C)=C\C=C\[C@H](C)[C@H](O)[C@@H](C)[C@@H](O)[C@@H](C)[C@H](OC(C)=O)[C@@H]1C [RIFAMPIN],,,0.2

# Source: ChEMBL document CHEMBL4330141, “Synthesis and evaluation of novel substituted 1,2,3-triazolyldihydroquinolines as promising antitubercular agents” (Bioorg Med Chem Lett, 2019)
